pIC50: −log10 of the molar value. Read-outs that look alike come from different tables or passages of the source.
How the values were obtained:
Format in all cases: cell-based
[1] = biological target: T1, hNav 1.2 sodium channel isoform (Homo sapiens, UniProt Q99250); test: hNav1.2 whole-cell voltage-clamp assay; conditions: use-dependent block, 10 Hz, read-out: NAV1.2* UDB-10HZ
T1 construct: expressed in transfected cells
Protocol: Wild-type (WT) cDNA stably transfected in Chinese hamster ovary (CHO) cells is used to record INa. Unless otherwise noted, all reagents are purchased from Sigma-Aldrich (St Louis, Mo., U.S.A.).
Whole-cell voltage-clamp recordings are used to measure the biophysical properties of WT. […] Cells are allowed to stabilize for 10 min after establishment of the whole-cell configuration before current is measured. Series resistance is compensated 90% to assure that the command potential is reached within microseconds with a voltage error<2 mV. Leak currents are subtracted by using an online P/4 procedure and all currents are low-pass Bessel filtered at 5 kHz and digitized at 50 kHz.
For clarity, representative ramp currents are low pass filtered off-line at 50 Hz. Specific voltage-clamp protocols assessing channel activation, fast inactivation and availability during repetitive stimulation are used. Results are presented as mean±SEM.
Tonic block of peak current is measured using a step to −10 mV (20 ms) from a holding potential of −120 mV (0.2 Hz). Use-dependent block of peak current is measured during pulse number 300 of a pulse train (−10 mV, 5 ms, 300 pulses, 10 Hz or 25 Hz) from a holding potential of −120 mV. Two sequential pulse train stimulations are averaged to obtain mean current traces for each recording condition, which are then used for offline subtraction and analysis.
For use-dependent studies, cells are stimulated with depolarizing pulse trains (−10 mV, 5 ms, 300 pulses, 10 and 25 Hz) from a holding potential of −120 mV. Currents are then normalized to the peak current recorded in response to the first pulse in each frequency train. For tonic block studies, peak current is evaluated in response to a 20 ms depolarization to −10 mV (0.2 Hz). […] Results are presented as mean±SEM.
A stock solution of 10 mM compound of Formula I is prepared in 0.1 M HCl or DMSO. […] The final DMSO concentration was kept at 0.1% in all solutions. Direct application of the perfusion solution to the clamped cell is achieved using the Perfusion Pencil system (Automate, Berkeley, Calif.). Direct cell perfusion is driven by gravity at a flow rate of 350 μL/min using a 250 micron tip. This system sequesters the clamped cell within a perfusion stream and enables complete solution exchange within 1 second. The clamped cell is perfused continuously starting immediately after establishing the whole-cell configuration. Control currents are measured during control solution perfusion.
Solutions are perfused for three minutes prior to current recordings to allow equilibrium (tonic) drug block. Tonic block of peak currents is measured from this steady-state condition. Three sequential current traces are averaged to obtain a mean current for each recording. The mean current traces are utilized for offline analysis. Use-dependent block of peak current is measured during pulse number 300 of the pulse train, (−10 mV, 5 ms, 300 pulses, 10 Hz) from a holding potential of −120 mV.

hERG potassium channel = hERG potassium channel (Homo sapiens, UniProt Q12809); test: hERG screening assay (PatchXpress, CHO cells); design: hERG: unit not given here
Sequence of hERG potassium channel (Q12809 whole entry): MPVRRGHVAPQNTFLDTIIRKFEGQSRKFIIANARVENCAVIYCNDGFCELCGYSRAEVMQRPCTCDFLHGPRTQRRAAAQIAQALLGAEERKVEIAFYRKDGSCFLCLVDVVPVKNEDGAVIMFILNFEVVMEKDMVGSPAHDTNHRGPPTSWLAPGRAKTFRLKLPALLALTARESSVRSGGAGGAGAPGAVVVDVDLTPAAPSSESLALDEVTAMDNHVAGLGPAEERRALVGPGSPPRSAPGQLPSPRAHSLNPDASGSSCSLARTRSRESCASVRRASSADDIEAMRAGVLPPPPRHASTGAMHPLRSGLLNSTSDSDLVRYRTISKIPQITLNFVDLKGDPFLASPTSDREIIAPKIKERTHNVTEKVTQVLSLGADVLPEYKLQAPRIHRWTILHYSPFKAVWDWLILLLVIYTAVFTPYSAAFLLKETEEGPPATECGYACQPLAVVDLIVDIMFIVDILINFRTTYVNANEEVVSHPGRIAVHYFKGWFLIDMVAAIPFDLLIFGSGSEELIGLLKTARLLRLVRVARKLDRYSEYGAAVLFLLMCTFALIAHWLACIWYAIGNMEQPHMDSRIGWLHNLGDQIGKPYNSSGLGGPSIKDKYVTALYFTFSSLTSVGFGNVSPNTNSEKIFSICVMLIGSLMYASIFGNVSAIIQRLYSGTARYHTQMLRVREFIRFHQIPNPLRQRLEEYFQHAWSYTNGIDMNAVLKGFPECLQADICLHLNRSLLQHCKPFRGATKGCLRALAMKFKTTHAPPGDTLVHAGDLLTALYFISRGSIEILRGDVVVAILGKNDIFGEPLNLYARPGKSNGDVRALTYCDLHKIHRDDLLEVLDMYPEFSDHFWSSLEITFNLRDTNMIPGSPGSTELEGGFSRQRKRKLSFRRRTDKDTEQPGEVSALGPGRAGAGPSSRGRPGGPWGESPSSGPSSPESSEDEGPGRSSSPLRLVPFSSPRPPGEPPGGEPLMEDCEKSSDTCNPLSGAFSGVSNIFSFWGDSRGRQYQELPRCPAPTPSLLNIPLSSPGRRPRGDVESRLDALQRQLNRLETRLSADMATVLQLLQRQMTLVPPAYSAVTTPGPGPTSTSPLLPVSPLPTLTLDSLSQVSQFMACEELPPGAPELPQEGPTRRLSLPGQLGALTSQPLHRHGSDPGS
Protocol: Compounds were also tested for their effect to block the hERG K^+ channel.
Compounds were screened to test their activity in blocking the hERG potassium channel at AVIVA Biosciences (San Deigo, Calif., USA). The hERG channel is heterologously expressed in a CHO (Chinese Hamster Ovary) cell line. Cells were maintained with standard tissue culture procedures and stable channel expression was maintained with 500 μg/mL G418 in the culture medium. Cells were harvested for testing on the PatchXpress 7000A automated patch clamp with Accumax (Innovative Cell Technologies, San Diego, Calif.) to isolate single cells.
The following solutions were used for electrophysiological recordings. The external solution contained: 2 mM CaCl2; 2 mM MgCl2; 4 mM KCl; 150 mM NaCl; 10 mM Glucose; 10 mM HEPES (pH 7.4 with 1M NaOH; osmolarity, ˜310 mOsm).
hERG channels were activated when the voltage was first stepped to −50 mV for 300 ms from the −80 mV holding potential and then stepped to +20 mV for 5 seconds. At +20 mV the channels open and then largely inactivate, so the currents are relatively small. Upon returning to −50 mV from +20 mV, hERG currents transiently become much larger as inactivation is rapidly removed and then the channel closes. The first step to −50 mV for 300 ms was used as a baseline for measuring the peak amplitude during the step to −50 mV after channel activation. The peak tail current at −50 mV was measured both under control conditions and after addition of compound, each cell serving as its own control.
All compounds were prepared as 10 mM DMSO stocks in glass vials. Stock solutions were mixed by vigorous vortexing and sonication for about 2 minutes at room temperature. For testing, compounds were diluted in glass vials using an intermediate dilution step in pure DMSO and then further diluted to working concentrations in external solution. Dilutions were prepared no longer than 20 minutes before use.
For the electrophysiological recordings, after achieving the whole-cell configuration, cells were monitored for 90 seconds to assess stability and washed with external solution for 66 seconds. The voltage protocol described above was then applied to the cells every 12 seconds and throughout the whole procedure. Only cells with stable recording parameters and meeting specified health criteria were allowed to enter the compound addition procedure.
External solution containing 0.1% DMSO (vehicle) was applied to the cells first to establish the control peak current amplitude. After allowing the current to stabilize for 3 to 5 minutes, 1 μM and then 10 μM test compounds were applied. Each compound concentration was added 4 times and cells were kept in test solution until the effect of the compound reached steady state or for a maximum of 12 minutes. […] Washout in the external solution compartment was performed until the recovery of the current reached steady state.

[2] = biological target: T2, hNav 1.1 sodium channel isoform (Homo sapiens, UniProt P35498); test: hNav1.1 whole-cell voltage-clamp assay; conditions: for inhibition at 1 µM: use-dependent block, 10 Hz, read-out: NAV1.1* UDB-10HZ
T2 construct: expressed in transfected cells; host or cells: HEK293, transient transfection (Qiagen Superfect)

T1 sequence (Q99250 whole entry, canonical isoform): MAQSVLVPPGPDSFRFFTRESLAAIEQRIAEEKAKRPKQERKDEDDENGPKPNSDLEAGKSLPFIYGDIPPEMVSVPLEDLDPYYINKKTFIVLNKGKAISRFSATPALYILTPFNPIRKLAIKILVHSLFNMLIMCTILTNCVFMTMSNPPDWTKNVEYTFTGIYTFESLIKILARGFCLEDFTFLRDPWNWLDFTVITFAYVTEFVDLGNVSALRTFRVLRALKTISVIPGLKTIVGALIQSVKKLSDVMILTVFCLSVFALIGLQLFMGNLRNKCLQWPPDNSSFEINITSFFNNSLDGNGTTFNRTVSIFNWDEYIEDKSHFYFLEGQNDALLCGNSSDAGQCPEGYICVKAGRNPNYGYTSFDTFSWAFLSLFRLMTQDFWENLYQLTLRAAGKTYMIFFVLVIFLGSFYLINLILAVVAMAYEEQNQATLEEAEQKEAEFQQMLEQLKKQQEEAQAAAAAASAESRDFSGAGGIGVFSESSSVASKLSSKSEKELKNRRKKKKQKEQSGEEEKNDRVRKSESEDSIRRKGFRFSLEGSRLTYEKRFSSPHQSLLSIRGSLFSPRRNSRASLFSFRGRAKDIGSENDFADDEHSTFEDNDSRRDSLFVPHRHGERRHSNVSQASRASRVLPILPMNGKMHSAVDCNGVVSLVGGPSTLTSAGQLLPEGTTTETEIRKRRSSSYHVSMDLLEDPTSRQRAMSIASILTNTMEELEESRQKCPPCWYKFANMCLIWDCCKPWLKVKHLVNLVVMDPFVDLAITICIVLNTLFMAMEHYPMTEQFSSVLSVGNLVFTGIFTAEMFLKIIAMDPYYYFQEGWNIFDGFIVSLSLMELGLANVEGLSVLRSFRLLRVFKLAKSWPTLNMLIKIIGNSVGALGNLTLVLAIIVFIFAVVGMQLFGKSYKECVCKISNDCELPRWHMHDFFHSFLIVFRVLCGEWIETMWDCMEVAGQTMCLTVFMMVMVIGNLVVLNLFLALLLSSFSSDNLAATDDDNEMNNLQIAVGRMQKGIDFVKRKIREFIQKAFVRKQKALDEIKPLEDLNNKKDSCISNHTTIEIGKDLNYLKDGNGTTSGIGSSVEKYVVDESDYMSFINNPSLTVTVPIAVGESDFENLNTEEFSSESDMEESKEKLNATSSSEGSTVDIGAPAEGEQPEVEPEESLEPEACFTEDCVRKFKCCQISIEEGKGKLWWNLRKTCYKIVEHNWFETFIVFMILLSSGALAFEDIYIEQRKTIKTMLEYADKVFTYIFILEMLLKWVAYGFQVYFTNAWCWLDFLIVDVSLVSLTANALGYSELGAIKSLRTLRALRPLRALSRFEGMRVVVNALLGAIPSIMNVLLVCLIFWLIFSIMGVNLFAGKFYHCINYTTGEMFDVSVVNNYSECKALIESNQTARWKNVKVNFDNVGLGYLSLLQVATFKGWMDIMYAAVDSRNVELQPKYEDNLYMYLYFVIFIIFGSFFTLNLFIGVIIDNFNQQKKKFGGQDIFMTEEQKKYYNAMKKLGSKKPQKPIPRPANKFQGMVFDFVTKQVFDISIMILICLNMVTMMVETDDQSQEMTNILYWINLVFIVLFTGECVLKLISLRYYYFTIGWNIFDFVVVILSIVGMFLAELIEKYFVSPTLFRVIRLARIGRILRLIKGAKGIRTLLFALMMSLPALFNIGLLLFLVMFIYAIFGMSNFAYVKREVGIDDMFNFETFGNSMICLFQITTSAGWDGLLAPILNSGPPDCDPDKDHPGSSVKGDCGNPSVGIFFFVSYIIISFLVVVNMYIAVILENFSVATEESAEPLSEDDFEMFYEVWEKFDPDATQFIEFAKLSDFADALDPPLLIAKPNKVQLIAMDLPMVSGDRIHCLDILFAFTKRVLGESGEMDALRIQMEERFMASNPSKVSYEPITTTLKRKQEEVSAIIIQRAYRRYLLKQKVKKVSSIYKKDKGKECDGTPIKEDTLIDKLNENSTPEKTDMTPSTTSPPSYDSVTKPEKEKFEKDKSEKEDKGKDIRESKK

Row | inhibition at 1 µM [1] [%] | inhibition at 1 µM [2] [%] | SMILES | hERG (hERG potassium channel) | pIC50 ([2]; frequency of 10 Hz, read-out: IC50 block of hNav 1.1 peak INa) | pIC50 ([2]; frequency of 25 Hz, read-out: IC50 block of hNav 1.1) | inhibited (or reduced) the activity of the hERG potassium channel (hERG potassium channel; at 1 μM) [%]
1 | 15 | 3 | O=C1c2cc(-c3ccc(C(F)(F)F)cc3)ccc2OC[C@H]2CN(CC(F)F)CCN12 [II-22, (R)-2-(2,2-difluoroethyl)-8-(4-(trifluoromethyl)phenyl)-3,4,12,12a-tetrahydro-1H-benzo[f]pyrazino[2,1-c][1,4]oxazepin-6(2H)-one] | 16 | – | – | –
2 | 10 | -2 | O=C1c2cc(-c3ccc(C(F)(F)F)cc3)ccc2OC[C@H]2CN(CC(F)(F)F)CCN12 [II-83, (R)-2-(2,2,2-trifluoroethyl)-8-(4-(trifluoromethyl)phenyl)-3,4,12,12a-tetrahydro-1H-benzo[f]pyrazino[2,1-c][1,4]oxazepin-6(2H)-one] | 21 | – | – | –
3 | -1 | -10 | O=C1c2cc(-c3ccc(Cl)cc3)ccc2OCCN1Cc1ncccn1 [II-88, 7-(4-chlorophenyl)-4-(pyrimidin-2-ylmethyl)-3,4-dihydrobenzo[f][1,4]oxazepin-5(2H)-one] | 26 | – | – | –
4 | -8 | -1 | CC(C)(C)c1ccc(-c2ccc3c(c2)C(=O)N(Cc2ncccn2)CCO3)cc1 [II-98, 7-(4-tert-butylphenyl)-4-(pyrimidin-2-ylmethyl)-3,4-dihydrobenzo[f][1,4]oxazepin-5(2H)-one] | <10 | – | – | –
5 | -2 | -4 | O=C1c2cc(-c3ccc(C(F)(F)F)cc3Cl)ccc2OCCN1Cc1ncccn1 [II-110, 7-(2-chloro-4-(trifluoromethyl)phenyl)-4-(pyrimidin-2-ylmethyl)-3,4-dihydrobenzo[f][1,4]oxazepin-5(2H)-one] | 26 | – | – | –
6 | -18 | -11 | O=C1c2cc(-c3ccc(Cl)cc3F)ccc2OCCN1Cc1ncccn1 [II-117, 7-(4-chloro-2-fluorophenyl)-4-(pyrimidin-2-ylmethyl)-3,4-dihydrobenzo[f][1,4]oxazepin-5(2H)-one] | <10 | – | – | –
7 | 7 | 8 | O=C1c2cc(-c3ccc(C(F)(F)F)cc3)ccc2OCCN1Cc1cn2ccccc2n1 [II-129, 4-(imidazo[1,2-a]pyridin-2-ylmethyl)-7-(4-(trifluoromethyl)phenyl)-3,4-dihydrobenzo[f][1,4]oxazepin-5(2H)-one] | 17 | – | – | –
8 | -3 | -1 | O=C(c1ncccn1)N1CCOc2ccc(-c3ccc(OC(F)(F)F)cc3)cc2C1 [III-1, pyrimidin-2-yl(7-(4-(trifluoromethoxy)phenyl)-2,3-dihydrobenzo[f][1,4]oxazepin-4(5H)-yl)methanone] | <10 | – | – | –
9 | 20 | 6 | O=C1c2cc(C#Cc3ccc(C(F)(F)F)cc3)ccc2OCCN1Cc1ncccn1 [VIII-6, 4-(pyrimidin-2-ylmethyl)-7-((4-(trifluoromethyl)phenyl)ethynyl)-3,4-dihydrobenzo[f][1,4]oxazepin-5(2H)-one] | <10 | – | – | –

Row | SMILES | inhibition at 1 µM [1] [%] | inhibition at 1 µM [2] [%] | hERG (hERG potassium channel) | pIC50 ([2]; frequency of 10 Hz, read-out: IC50 block of hNav 1.1 peak INa) | pIC50 ([2]; frequency of 25 Hz, read-out: IC50 block of hNav 1.1) | inhibited (or reduced) the activity of the hERG potassium channel (hERG potassium channel; at 1 μM) [%]
10 | O=C1CN(Cc2ccccc2)C(=O)c2cc(-c3ccc(C(F)(F)F)cc3)ccc2N1 [Compound X-8, 4-benzyl-7-(4-(trifluoromethyl)phenyl)-3,4-dihydro-1H-benzo[e][1,4]diazepine-2,5-dione] | -14 | -12 | <10 | – | – | –
11 | O=C1c2cc(-c3ccc(OC(F)(F)F)cc3)ccc2OCCN1Cc1ncccn1 [II-73, 4-(pyrimidin-2-ylmethyl)-7-(4-(trifluoromethoxy)phenyl)-3,4-dihydrobenzo[f][1,4]oxazepin-5(2H)-one] | 19 | – | – | < 4.00 | 5.47 | –
12 | O=C1c2cc(-c3ccc(C(F)(F)F)cc3F)ccc2OCCN1Cc1ncccn1 [II-105, 7-(2-fluoro-4-(trifluoromethyl)phenyl)-4-(pyrimidin-2-ylmethyl)-3,4-dihydrobenzo[f][1,4]oxazepin-5(2H)-one] | 1 | -17 | <10 | – | – | < 10
13 | O=C1c2cc(C#Cc3ccc(OC(F)(F)F)cc3)ccc2OCCN1Cc1ncccn1 [VIII-4, 4-(pyrimidin-2-ylmethyl)-7-((4-(trifluoromethoxy)phenyl)ethynyl)-3,4-dihydrobenzo[f][1,4]oxazepin-5(2H)-one] | 18 | 5 | 30 | – | – | –

Source: patent publication US9676760B2, “Fused heterocyclic compounds as ion channel modulators” (Gilead Sciences, Inc., priority 2011, dated 2017)
